This note sets out measurements from patent publication US9463192B2, “Trk-inhibiting compound” (ONO PHARMACEUTICAL CO., LTD., priority 2013, dated 2016).

A word on the IC50: it is the point on the concentration scale where inhibition reaches its midpoint.

Assay [1] concerns the target human TrkA (Homo sapiens (Human), UniProt P04629). As to the kind of experiment: Measurement of TrkA kinase-inhibiting activity using human TrkA-expressing cells. Format: cell-based. Particulars: CHO-K1 cells expressing human TrkA and NFAT-bla; NGF 50 ng/ml; TR-FRET reporter.
In assay [2] the test system is NGF-induced vascular hyper permeability. The experiment in a line: Inhibition of rat NGF-induced vascular hyper permeability. Format: in vivo. Particulars: po, 1 mg/kg orally, 14 h after administration, read-out: Inhibition rate of vascular hyper permeability (%) (time after administration (h)).
Assay [3] has as its system sodium monoiodoacetate-induced model rats. As to the kind of experiment: Analgesic effect on sodium monoiodoacetate-induced model rats. Format: in vivo, rat.

Structures are written as SMILES.

Sequence of human TrkA (P04629 33-796): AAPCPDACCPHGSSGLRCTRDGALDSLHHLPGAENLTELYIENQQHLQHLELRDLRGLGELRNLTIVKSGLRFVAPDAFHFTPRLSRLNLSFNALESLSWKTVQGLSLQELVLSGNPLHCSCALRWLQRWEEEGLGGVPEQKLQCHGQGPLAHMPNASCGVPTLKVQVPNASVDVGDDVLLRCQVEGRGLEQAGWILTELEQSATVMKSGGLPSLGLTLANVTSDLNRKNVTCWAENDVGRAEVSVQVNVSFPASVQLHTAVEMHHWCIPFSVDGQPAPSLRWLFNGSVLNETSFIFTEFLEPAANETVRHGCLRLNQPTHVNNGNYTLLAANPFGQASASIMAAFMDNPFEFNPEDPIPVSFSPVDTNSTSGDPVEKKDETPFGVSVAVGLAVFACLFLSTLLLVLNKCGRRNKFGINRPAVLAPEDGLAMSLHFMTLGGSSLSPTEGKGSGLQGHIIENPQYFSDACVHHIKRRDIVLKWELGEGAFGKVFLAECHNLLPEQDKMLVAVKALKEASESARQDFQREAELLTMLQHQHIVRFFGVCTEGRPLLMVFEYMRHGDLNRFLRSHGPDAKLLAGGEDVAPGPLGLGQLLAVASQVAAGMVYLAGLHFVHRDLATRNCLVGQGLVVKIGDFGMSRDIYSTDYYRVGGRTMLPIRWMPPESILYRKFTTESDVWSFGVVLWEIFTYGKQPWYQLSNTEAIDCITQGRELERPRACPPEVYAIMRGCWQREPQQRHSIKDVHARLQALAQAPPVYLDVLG

The compound `COc1ccc2ncc(-c3ccc(Oc4ncc(NC(=O)Nc5cc(C(F)(F)F)ccc5-n5cccn5)cn4)cc3)n2n1` [Example 22-9, 1-(2-(1H-pyrazol-1-yl)-5-(trifluoromethyl)phenyl)-3-(2-(4-(6-methoxyimidazo[1,2-b]pyridazin-3-yl)phenoxy)pyrimidin-5-yl)urea] came in with a 50% inhibitory concentration (IC50) in assay [1] of 0.001 µM. Also, the inhibition in vivo at 1 mg/kg in assay [2] was found to be 100%.

`CCOc1ccc2ncc(-c3ccc(Oc4ncc(NC(=O)Nc5cc(C(F)(F)F)ccc5-c5cccnc5)cn4)cc3)n2n1` [Example 22-34, 1-{2-[4-(6-ethoxyimidazo[1,2-b]pyridazin-3-yl)phenoxy]-5-pyrimidinyl}-3-[2-(3-pyridinyl)-5-(trifluoromethyl)phenyl]urea]: half-maximal inhibition in assay [1] (IC50) required 0.001 µM. For the same compound, in assay [2], the inhibition in vivo at 1 mg/kg stood at 91%. For the compound `CN1CC[C@]23c4c5ccc(O)c4O[C@H]2[C@@H](O)C=C[C@H]3[C@H]1C5` [Morphine], the inhibition in vivo at 3 mg/kg in assay [3] (Rattus norvegicus, sc, 1 h, read-out: Percent improvement (%)) was determined as 54%. As for `COc1cccc(C2(O)CCCCC2CN(C)C)c1` (stereo not drawn) [Tramadol], the “Percent improvement (%)” value in assay [3] (MIA-induced model rats, day 24, tramadol 10 mg/kg subcutaneously 1 hour before measurement) is given as 43%.
